Measured values taken from article PMC11440035, “Interaction of myricetin, ampelopsin (dihydromyricetin), and their sulfate metabolites with serum albumin, cytochrome P450 (CYP2C9, 2C19, and 3A4) enzymes, and organic anion‐transporting polypeptides (OATP1B1 and OATP2B1)” (Pharmacology Research & Perspectives, 2024).
Where “and” joins values, the source holds several entries; their conditions need not be identical. Equal entries are not always repeated.

How the values were obtained:
[1] = target: T1, OATP1B1 (Homo sapiens, UniProt Q9Y6L6); assay: Inhibition of OATP1B1-mediated disulfopyrene uptake in A431 cells; type: cell-based; settings: for decrease in the transport activity of OATP1B1 / inhibition of OATP1B1 in words: 25 μM flavonoid; for IC50: disulfopyrene 10 μM, 10 min, HBSS pH 7.4, A431-OATP1B1 cells
T1 construct: expressed in transfected cells; host or cells: A431
T1 sequence (Q9Y6L6 1-691): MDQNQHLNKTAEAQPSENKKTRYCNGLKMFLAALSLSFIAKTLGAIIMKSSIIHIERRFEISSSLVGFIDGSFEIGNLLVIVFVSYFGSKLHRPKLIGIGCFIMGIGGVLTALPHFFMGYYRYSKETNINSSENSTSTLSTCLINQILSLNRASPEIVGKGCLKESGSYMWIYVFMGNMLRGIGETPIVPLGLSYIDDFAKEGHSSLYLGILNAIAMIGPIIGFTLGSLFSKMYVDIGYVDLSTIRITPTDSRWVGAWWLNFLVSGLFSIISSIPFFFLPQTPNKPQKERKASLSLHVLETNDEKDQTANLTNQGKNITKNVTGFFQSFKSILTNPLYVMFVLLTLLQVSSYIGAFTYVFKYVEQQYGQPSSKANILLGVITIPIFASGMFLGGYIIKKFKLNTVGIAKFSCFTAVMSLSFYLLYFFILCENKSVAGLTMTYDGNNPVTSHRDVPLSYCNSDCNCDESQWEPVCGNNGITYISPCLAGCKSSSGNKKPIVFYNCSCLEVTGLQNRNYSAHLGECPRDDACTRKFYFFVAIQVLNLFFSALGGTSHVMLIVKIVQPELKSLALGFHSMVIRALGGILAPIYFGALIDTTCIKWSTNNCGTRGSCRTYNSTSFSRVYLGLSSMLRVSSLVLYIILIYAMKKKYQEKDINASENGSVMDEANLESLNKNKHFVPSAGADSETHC
Method: Human A431 cells overexpressing OATPs (OATP1B1 or OATP2B1) and their mock‐transfected controls were established earlier.[42], [43] The cells were maintained at 37°C with 5% CO2 in Dulbecco's Modified Eagle Medium (DMEM; Thermo Fischer Scientific, Waltham, MA, USA) supplemented with fetal bovine serum (10%), L‐glutamine (2 mM), penicillin (100 units/mL) and streptomycin (100 μg/mL).
The inhibitory impacts of MYR, AMP, and their sulfate metabolites on OATP1B1 and OATP2B1 were examined using the fluorescent dye substrates disulfopyrene (6,8‐dihydroxy‐1,3‐disulfopyrene) and pyranine, respectively.[42], [43] The day before the transport measurements, A431 cells overexpressing OATP1B1 or OATP2B1 (and their mock‐transfected controls) were seeded onto 96‐well plates at a density of 80 000 cells/well in DMEM (200 μL). Next day, the medium was removed, the cells were washed three times with PBS (pH 7.4, 200 μL) at room temperature, then the cells were pre‐incubated with 50 μL of Hank's Balanced Salt Solution (HBSS, pH 7.4; OATP1B1) or uptake buffer (pH 5.5; OATP2B1) for 5 min at 37°C with or without the flavonoids.[43] The transport reaction was started by adding 50 μL of disulfopyrene‐containing (final concentration: 10 μM) HBSS (OATP1B1 assay), or pyranine‐containing (final concentration: 20 μM) uptake buffer (OATP2B1 assay). After 10 min (OATP1B1) or 15 min (OATP2B1), the transport was stopped by removing the supernatant and washing the cells three times with ice‐cold PBS (200 μL). Then the fluorescence was measured in 200 μL of PBS using an Enspire plate reader (PerkinElmer, Waltham, MA, US) at excitation and emission wavelengths of 460/510 nm. OATP‐dependent transport was determined by subtracting the fluorescence detected in mock control cells from that of OATP‐expressing cells. Transport activity was measured based on the fluorescence signal in the absence of flavonoids (100%). IC50 values were calculated by sigmoidal fitting (Hill1), using the Origin software (version 2018, OriginLab Corporation, Northampton, MA, USA).

[2] = target: T1, OATP1B1; assay: Uptake of flavonoids by A431-OATP1B1 versus mock cells (APB fluorescence); type: cell-based; settings: for cellular flavonoid level in OATP1B1‐overexpressing versus mock control cells: 10 μM flavonoid, 15 min, 37°C; for substrate of OATP1B1: conclusion from uptake studies
Method: Direct uptake of AMP, MYR, and their sulfate metabolites were examined in A431 cells overexpressing OATP1B1 or OATP2B1, and in their mock‐transfected controls using APB as a fluorescence enhancer. One day before the uptake measurements, the cells were seeded onto 96‐well plates at a density of 80 000 cells/well in DMEM (200 μL). The following day, the cell culture medium was removed, and the cells were rinsed thrice with PBS (200 μL). Thereafter, the cells were preincubated with HBSS (50 μL) for 5 min at 37°C. The uptake reaction was initiated by the addition of a further 50 μL of HBSS containing AMP, MYR, or their sulfate conjugates (10 μM). After incubating for 15 min at 37°C, the reaction was stopped by removing the supernatant and rinsing the cells three times with ice‐cold PBS. Then PBS buffer (200 μL) containing APB (250 μg/mL) and BSA (1 mg/mL) was added to each well.[35] The fluorescence was read using an Enspire plate reader using the wavelengths listed in Section 2.7.
The concentration‐dependent uptake of M3′S was also tested under the same conditions, except the cells were incubated with 0–10 μM M3′S for 2 min (OATP1B1) or 5 min (OATP2B1).
To test the effect of BSP (a known inhibitor of OATPs[44]) on the cellular uptake of M3′S, cells were preincubated with HBSS buffer (50 μL) with or without BSP (20 μM) for 5 min at 37°C. Thereafter, we added 50 μL of HBSS containing M3′S (final concentration: 2 μM), and cells were further incubated at 37°C for 2 min (OATP1B1) or 5 min (OATP2B1). The reaction was stopped by removing the supernatant. After washing the cells with ice‐cold PBS, a PBS buffer with APB/BSA was added. Fluorescence was determined by applying an Enspire plate reader at excitation/emission wavelengths of 480/540 nm.

decrease in the transport activity of OATP1B1 [1] | substrate of OATP1B1 [2] | inhibitory strength on OATP1B1 relative to MYR ([1]; ratio of IC50 values) | concentration‐dependent uptake in OATP1B1‐overexpressing cells ([2]; 0–10 μM, 2 min) | SMILES | cellular flavonoid level in OATP1B1‐overexpressing versus mock control cells [2] | inhibition of OATP1B1 in words [1] | IC50 [1]
~70% | not substrates | – | – | O=C1c2c(O)cc(O)cc2OC(c2cc(O)c(OS(=O)(=O)O)c(O)c2)C1O (stereo not shown) [A4′S, ampelopsin‐4′‐O‐sulfate] | did not show statistically significant differences | – | –
approximately 40% | not substrates | – | – | O=C1c2c(O)cc(O)cc2O[C@H](c2cc(O)c(O)c(O)c2)[C@H]1O [AMP, ampelopsin] | did not show statistically significant differences | – | –
– | substrate | four‐fold stronger | saturable uptake | O=c1c(O)c(-c2cc(O)c(O)c(OS(=O)(=O)O)c2)oc2cc(O)cc(O)c12 [M3′S, myricetin‐3′‐O‐sulfate] | more than two‐fold | close to complete inhibition | 1700 nM and 1660 nM

SMILES | decrease in the transport activity of OATP1B1 [1] | substrate of OATP1B1 [2] | inhibitory strength on OATP1B1 relative to MYR ([1]; ratio of IC50 values) | concentration‐dependent uptake in OATP1B1‐overexpressing cells ([2]; 0–10 μM, 2 min) | cellular flavonoid level in OATP1B1‐overexpressing versus mock control cells [2] | inhibition of OATP1B1 in words [1] | IC50 [1]
O=c1c(O)c(-c2cc(O)c(O)c(O)c2)oc2cc(O)cc(O)c12 [MYR, myricetin] | – | not substrates | – | – | did not show statistically significant differences | close to complete inhibition | 6400 nM
